Measured values taken from PMC5557986 (Scientific Reports, 2017).

How the values were obtained:
influenza NA = details: cited from earlier work
N2 = details: cited from earlier work
[1] = molecular target: A/RI/5+/1957(H2N2) NA (N2) (Influenza A virus, UniProt Q194T1); assay: biochemical; assay type: biochemical, influenza A/RI/5+/1957(H2N2)
[2] = molecular target: Clostridium perfringens NanJ NA (CpNA) (Clostridium perfringens, UniProt A0A0H2YT71); assay type: biochemical
[3] = test system: Streptococcus 6646K NA (StrepNA); assay type: biochemical

Clostridium perfringens NanJ NA (CpNA), sequence (A0A0H2YT71 27-1173 limits assumed): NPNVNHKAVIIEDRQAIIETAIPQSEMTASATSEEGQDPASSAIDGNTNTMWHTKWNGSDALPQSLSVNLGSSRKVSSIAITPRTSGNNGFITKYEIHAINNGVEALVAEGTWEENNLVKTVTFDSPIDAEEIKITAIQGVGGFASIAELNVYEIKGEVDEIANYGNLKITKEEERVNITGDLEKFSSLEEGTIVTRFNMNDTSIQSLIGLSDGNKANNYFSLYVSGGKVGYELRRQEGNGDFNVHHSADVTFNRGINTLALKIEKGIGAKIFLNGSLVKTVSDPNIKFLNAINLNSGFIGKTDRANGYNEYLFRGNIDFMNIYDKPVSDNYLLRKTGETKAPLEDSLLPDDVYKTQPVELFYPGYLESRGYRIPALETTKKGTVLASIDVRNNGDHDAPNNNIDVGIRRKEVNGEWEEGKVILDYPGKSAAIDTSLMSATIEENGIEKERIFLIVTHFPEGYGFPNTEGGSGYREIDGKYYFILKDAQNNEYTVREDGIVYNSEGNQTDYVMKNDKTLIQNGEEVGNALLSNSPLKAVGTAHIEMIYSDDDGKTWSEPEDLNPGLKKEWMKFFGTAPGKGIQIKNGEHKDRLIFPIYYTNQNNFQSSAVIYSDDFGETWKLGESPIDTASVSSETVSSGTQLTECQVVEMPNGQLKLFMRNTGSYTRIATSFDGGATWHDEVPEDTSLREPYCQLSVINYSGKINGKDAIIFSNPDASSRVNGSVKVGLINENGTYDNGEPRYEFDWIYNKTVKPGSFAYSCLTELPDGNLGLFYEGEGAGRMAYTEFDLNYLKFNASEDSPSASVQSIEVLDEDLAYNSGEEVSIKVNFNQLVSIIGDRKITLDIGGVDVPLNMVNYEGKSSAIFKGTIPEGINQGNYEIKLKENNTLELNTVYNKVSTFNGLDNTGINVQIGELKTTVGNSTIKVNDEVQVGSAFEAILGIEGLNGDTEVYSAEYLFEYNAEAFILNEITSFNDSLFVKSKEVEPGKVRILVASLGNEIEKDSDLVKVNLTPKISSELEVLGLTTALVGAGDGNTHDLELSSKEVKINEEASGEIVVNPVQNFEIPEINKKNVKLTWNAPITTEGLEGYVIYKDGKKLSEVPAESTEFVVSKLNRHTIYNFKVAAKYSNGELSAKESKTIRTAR

Row | Molecule | inhibition of influenza NA (influenza NA) | IC50 [1] | Ki [1] | other results
1 | CCOC(=O)C1=C[C@@H](OC(CC)CC)[C@H](NC(C)=O)[C@@H](N)C1 [oseltamivir] | low nanomolar level |  |  | 
2 | CC(=O)N[C@H]1[C@H]([C@H](O)[C@H](O)CO)OC(C(=O)O)=C[C@@H]1O [Neu4Ac2en, 2,3-dehydro-2-deoxy-N-acetylneuraminic acid] |  |  |  | IC50 (N2): 19 µM
3 | CC(=O)N[C@@H]1C=C[C@H](S(=O)(=O)O)O[C@H]1[C@H](O)[C@H](O)CO [8b, 4-Acetamido-1-sufo-2,3-didehydro-1,2,3,4-tetradeoxy-D-glycero-D-galacto-octopyranose] |  | 316 µM | 88.1 µM | 
4 | CC(=O)N[C@H]1[C@H]([C@H](O)[C@H](O)CO)OC(C(=O)O)=C[C@@H]1N=C(N)N [zanamivir] | low nanomolar level |  |  | 
5 | peramivir | low nanomolar level |  |  | 
6 | CC(=O)N[C@H]1[C@H]([C@H](O)[C@H](O)CO)O[C@@H](S(=O)(=O)O)C[C@@H]1O [7b, 4-Acetamido-1-sulfo-1,2,4-trideoxy-D-glycero-D-galacto-octopyranose] |  | 120 µM | 33.5 µM | 
7 | CC(=O)N[C@H]1[C@H]([C@H](O)[C@H](O)CO)O[C@H](S(=O)(=O)O)C[C@@H]1O [7a, 4-Acetamido-1-sulfo-1,2,4-trideoxy-D-glycero-D-galacto-octopyranose] |  | 8.86 µM | 2.47 µM | potency for inhibition of influenza N2 relative to eqPO3H [1]: 40 fold; potency for CpNA inhibition relative to eqPO3H [2]: 8.5 fold; IC50 ([2]; read-out: CpNA IC50): 37.5 µM; IC50 [3]: 3.74 µM
8 | [H]/N=C(\N)N[C@H]1C=C(C(=O)O)O[C@@H]([C@H](OC)[C@H](O)CO)[C@@H]1NC(C)=O [laninamivir] | low nanomolar level |  |  | 
